Results on four molecules are retold here after US12649722B2, “Herbicidal cinnoline derivatives” (SYNGENTA CROP PROTECTION AG, priority 2020, dated 2026).

What all share (type): in vivo
Test [1] has as its system ABUTH. Briefly: Post-emergence Test, ABUTH. Particulars: sprayed after 8 days cultivation, 1000 g/ha, evaluated after 13 days. The protocol: [The procedure below names another target; the source lists this target under the same test.] (§1) Seeds of a variety of test species are sown in standard soil in pots (Amaranthus retoflexus (AMARE), Solarium nigrum (SOLNI), Setaria faberi (SETFA), Lolium perenne (LOLPE), Echinochloa crus-galli (ECHCG), Ipornoea hederacea (IPOHE)). After 8 days cultivation under controlled conditions in a glasshouse (at 24° C./16° C., day/night; 14 hours light; 65% humidity), the plants are sprayed with an aqueous spray solution derived from the formulation of the technical active ingredient in acetone/water (50:50) solution containing 0.5% Tween 20 (polyoxyethylene sorbitan monolaurate, CAS RN 9005-64-5). Compounds are applied at 1000 g/ha unless otherwise stated. The test plants are then grown in a glasshouse under controlled conditions in a glasshouse (at 24° C./16° C., day/night; 14 hours light; 65% humidity) and watered twice daily. After 13 days the test is evaluated for the percentage damage caused to the plant. The biological activities are shown in the following table on a five-point scale (5=81-100%; 4=61-80%; 3=41-60%; 2=21-40%; 1=10-20%; 0=0%; −=not tested).

The test system of test [2] is Amaranthus retoflexus (AMARE). Briefly: Post-emergence Test, AMARE. Particulars: sprayed after 8 days cultivation, 1000 g/ha, evaluated after 13 days. As for the experimental part:
as §1

The subject of test [3] is Setaria faberi (SETFA). The experiment in a line: Pre-emergence Test, SETFA. Particulars: 1000 g/ha, evaluated after 13 days.
For test [4], the system named is ZEAMX. The experiment in a line: Pre-emergence Test, ZEAMX. Particulars: 1000 g/ha, evaluated after 13 days.
For test [5], the system named is ABUTH. The experiment in a line: Pre-emergence Test, ABUTH. Particulars: 1000 g/ha, evaluated after 13 days.
In test [6] the test system is ZEAMX. The experiment in a line: Post-emergence Test, ZEAMX. Particulars: sprayed after 8 days cultivation, 1000 g/ha, evaluated after 13 days. As for the experimental part:
[The procedure below names another target; the source lists this target under the same test.] as §1

Test [7] relates to Ipornoea hederacea (IPOHE). Briefly: Pre-emergence Test, IPOHE. Particulars: 1000 g/ha, evaluated after 13 days.
In test [8] the test system is Setaria faberi (SETFA). Briefly: Post-emergence Test, SETFA. Particulars: sprayed after 8 days cultivation, 1000 g/ha, evaluated after 13 days. The protocol: as §1
Test [9] concerns Ipornoea hederacea (IPOHE). Briefly: Post-emergence Test, IPOHE. Particulars: sprayed after 8 days cultivation, 1000 g/ha, evaluated after 13 days. The protocol:
as §1

Test [10] deals with Amaranthus retoflexus (AMARE). Briefly: Pre-emergence Test, AMARE. Particulars: 1000 g/ha, evaluated after 13 days.
The subject of test [11] is Echinochloa crus-galli (ECHCG). Briefly: Post-emergence Test, ECHCG. Particulars: sprayed after 8 days cultivation, 1000 g/ha, evaluated after 13 days. The protocol:
as §1

For test [12], the system named is Echinochloa crus-galli (ECHCG). The experiment in a line: Pre-emergence Test, ECHCG. Particulars: 1000 g/ha, evaluated after 13 days.

`C=Cc1cccc2c1c(=O)c(C(=O)O)nn2-c1ccc(OC(F)(F)F)cc1` [Compound P17, 4-oxo-1-[4-(trifluoromethoxy)phenyl]-5-vinyl-cinnoline-3-carboxylic acid]: the “percentage damage caused to the plant, ABUTH” value in the test on ABUTH [1] and in the test on ABUTH [5] was 1 (1=10-20%) in each case. Moreover, the “percentage damage caused to the plant, AMARE” value in test [2] and in test [10] was 2 (2=21-40%) in each case. Moreover, the “percentage damage caused to the plant, SETFA” value in the test on Setaria faberi (SETFA) [3] and in the test on Setaria faberi (SETFA) [8] was 3 (3=41-60%) in each case. The “percentage damage caused to the plant, ZEAMX” value in the test on ZEAMX [4] and with ZEAMX [6] was 1 (1=10-20%) throughout. In addition, the “percentage damage caused to the plant, IPOHE” value in [7] and in test [9] was 0 (0=0%) in each case. For the same molecule, the “percentage damage caused to the plant, ECHCG” value in test [11] is recorded as 3 (3=41-60%); in test [12], 2 (2=21-40%).

On to `CCOC(=O)c1nn(-c2ccc(OC(F)(F)F)cc2)c2cccc(CC=O)c2c1=O` [Compound P18, ethyl 4-oxo-5-(2-oxoethyl)-1-[4-(trifluoromethoxy)phenyl] cinnoline-3-carboxylate], for which the “percentage damage caused to the plant, ABUTH” value is 1 (1=10-20%) in the test with ABUTH [1] and 0 (0=0%) in the test on ABUTH [5]. Further, the “percentage damage caused to the plant, AMARE” value in test [2] and in [10] was 0 (0=0%) in each case. In addition, the “percentage damage caused to the plant, SETFA” value in the test on Setaria faberi (SETFA) [3] and in the test with Setaria faberi (SETFA) [8] was 1 (1=10-20%) in each case. Moreover, the “percentage damage caused to the plant, ZEAMX” value was 0 (0=0%) in the test on ZEAMX [4] and 1 (1=10-20%) with ZEAMX [6]. In addition, the “percentage damage caused to the plant, IPOHE” value is 0 (0=0%) in test [7] and 1 (1=10-20%) in test [9]. For the same molecule, the “percentage damage caused to the plant, ECHCG” value is 1 (1=10-20%) in test [11] and 0 (0=0%) in [12].

For the molecule `O=C(O)c1nn(-c2ccc(OC(F)(F)F)cc2)c2cccc(-n3cc(Cl)cn3)c2c1=O` [Compound P19], the “percentage damage caused to the plant, ABUTH” value was 1 (1=10-20%) with ABUTH [1] and 0 (0=0%) with ABUTH [5]. Besides, the “percentage damage caused to the plant, AMARE” value in test [2] is reported as 2 (2=21-40%); in [10] it was 0 (0=0%). Also, the “percentage damage caused to the plant, SETFA” value with Setaria faberi (SETFA) [3] and with Setaria faberi (SETFA) [8] was 4 (4=61-80%) throughout. The “percentage damage caused to the plant, ZEAMX” value with ZEAMX [4] is 1 (1=10-20%); in the test with ZEAMX [6] it was 2 (2=21-40%). Moreover, the “percentage damage caused to the plant, IPOHE” value in test [7] is 0 (0=0%); in [9], 2 (2=21-40%). Further, the “percentage damage caused to the plant, ECHCG” value in [11] and in test [12] was 3 (3=41-60%) throughout.

Take `O=C(O)c1nn(-c2ccc(OC(F)(F)F)cc2)c2cccc(-n3cc(C(F)(F)F)nn3)c2c1=O` [Compound P21, 4-oxo-1-[4-(trifluoromethoxy)phenyl]-5-[4-(trifluoromethyl)triazol-1-yl]cinnoline-3-carboxylic acid]: the “percentage damage caused to the plant, ABUTH” value in the test with ABUTH [1] is on record as 1 (1=10-20%); in the test with ABUTH [5], 0 (0=0%). Also, the “percentage damage caused to the plant, AMARE” value in test [2] and in [10] was 1 (1=10-20%) in each case. Moreover, the “percentage damage caused to the plant, SETFA” value with Setaria faberi (SETFA) [3] and in the test on Setaria faberi (SETFA) [8] was 2 (2=21-40%) each time. Also, the “percentage damage caused to the plant, ZEAMX” value is 0 (0=0%) in the test with ZEAMX [4] and 1 (1=10-20%) with ZEAMX [6]. The results for the “percentage damage caused to the plant, IPOHE” value in test [7] and in test [9] were 1 (1=10-20%) and 0 (0=0%), respectively. For the same molecule, the “percentage damage caused to the plant, ECHCG” value in test [11] is recorded as 0 (0=0%); in [12], 1 (1=10-20%).
